Here are results for 7 compounds from the Kinase Knowledgebase extract (Sharma et al. 2016).

Among the targets are PIK3CD (Human) (UniProt O00329); PIK3CA (human) (UniProt P42336); PIK3CG (human) (UniProt P48736); PIK3CB (Human) (UniProt P42338).
Assay in all cases: Enzyme Assay

Some results are limits rather than exact numbers.

Sequence of PIK3CG (human) (P48736 whole entry, looked up): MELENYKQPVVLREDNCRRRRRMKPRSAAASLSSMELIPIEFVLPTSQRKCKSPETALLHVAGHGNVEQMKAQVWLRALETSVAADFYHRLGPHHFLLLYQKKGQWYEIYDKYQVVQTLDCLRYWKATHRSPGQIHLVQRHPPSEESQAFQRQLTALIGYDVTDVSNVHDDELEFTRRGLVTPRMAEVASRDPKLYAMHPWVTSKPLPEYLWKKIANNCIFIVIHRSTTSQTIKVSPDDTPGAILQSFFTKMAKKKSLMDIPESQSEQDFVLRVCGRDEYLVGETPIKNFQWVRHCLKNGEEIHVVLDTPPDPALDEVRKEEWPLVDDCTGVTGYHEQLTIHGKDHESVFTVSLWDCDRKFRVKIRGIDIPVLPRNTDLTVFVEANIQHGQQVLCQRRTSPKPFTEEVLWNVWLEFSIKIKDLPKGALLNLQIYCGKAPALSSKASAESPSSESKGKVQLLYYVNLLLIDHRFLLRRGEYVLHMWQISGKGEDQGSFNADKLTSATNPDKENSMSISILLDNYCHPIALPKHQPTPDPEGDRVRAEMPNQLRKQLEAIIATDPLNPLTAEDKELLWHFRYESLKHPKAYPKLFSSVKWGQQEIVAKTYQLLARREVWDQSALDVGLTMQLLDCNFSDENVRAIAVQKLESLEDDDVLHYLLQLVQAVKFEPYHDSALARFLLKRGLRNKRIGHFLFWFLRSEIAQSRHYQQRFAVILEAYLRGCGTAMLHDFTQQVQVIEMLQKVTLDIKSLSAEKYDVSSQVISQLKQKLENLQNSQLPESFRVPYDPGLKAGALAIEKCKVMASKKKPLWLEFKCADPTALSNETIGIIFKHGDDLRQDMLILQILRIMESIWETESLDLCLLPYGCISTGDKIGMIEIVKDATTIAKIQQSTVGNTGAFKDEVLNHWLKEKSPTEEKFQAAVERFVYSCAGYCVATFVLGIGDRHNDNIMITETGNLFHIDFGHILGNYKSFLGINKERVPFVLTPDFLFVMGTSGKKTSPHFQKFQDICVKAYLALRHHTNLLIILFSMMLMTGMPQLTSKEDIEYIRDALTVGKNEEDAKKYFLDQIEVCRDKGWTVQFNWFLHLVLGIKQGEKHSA
Sequence of PIK3CA (human) (P42336 whole entry, looked up): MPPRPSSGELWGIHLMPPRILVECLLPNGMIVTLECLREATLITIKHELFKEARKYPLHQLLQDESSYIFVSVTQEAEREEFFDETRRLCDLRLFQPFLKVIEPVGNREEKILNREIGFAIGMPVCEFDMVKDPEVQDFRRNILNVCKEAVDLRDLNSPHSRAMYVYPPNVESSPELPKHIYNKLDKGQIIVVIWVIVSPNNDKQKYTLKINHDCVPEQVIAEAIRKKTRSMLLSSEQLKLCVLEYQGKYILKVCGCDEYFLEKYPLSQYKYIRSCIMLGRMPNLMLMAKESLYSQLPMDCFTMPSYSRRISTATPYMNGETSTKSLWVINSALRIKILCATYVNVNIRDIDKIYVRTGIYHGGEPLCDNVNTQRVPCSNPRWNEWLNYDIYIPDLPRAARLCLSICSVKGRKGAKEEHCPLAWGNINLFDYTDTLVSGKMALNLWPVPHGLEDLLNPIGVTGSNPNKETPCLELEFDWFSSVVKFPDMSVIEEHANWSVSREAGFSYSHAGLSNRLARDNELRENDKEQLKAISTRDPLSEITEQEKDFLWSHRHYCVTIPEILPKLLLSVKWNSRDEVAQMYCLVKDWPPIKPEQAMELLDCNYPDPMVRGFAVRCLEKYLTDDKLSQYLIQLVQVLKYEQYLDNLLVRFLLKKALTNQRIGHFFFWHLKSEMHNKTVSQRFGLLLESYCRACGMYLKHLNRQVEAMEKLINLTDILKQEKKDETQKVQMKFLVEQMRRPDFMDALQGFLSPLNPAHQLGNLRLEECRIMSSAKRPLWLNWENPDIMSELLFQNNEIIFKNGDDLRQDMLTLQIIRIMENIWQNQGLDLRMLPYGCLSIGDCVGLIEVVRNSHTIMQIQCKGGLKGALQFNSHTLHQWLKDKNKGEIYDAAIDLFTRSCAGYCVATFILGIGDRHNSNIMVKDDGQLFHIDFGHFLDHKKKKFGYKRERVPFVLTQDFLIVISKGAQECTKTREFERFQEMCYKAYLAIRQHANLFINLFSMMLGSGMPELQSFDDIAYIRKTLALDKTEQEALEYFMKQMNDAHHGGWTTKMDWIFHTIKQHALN
Sequence of PIK3CB (Human) (P42338 whole entry, looked up): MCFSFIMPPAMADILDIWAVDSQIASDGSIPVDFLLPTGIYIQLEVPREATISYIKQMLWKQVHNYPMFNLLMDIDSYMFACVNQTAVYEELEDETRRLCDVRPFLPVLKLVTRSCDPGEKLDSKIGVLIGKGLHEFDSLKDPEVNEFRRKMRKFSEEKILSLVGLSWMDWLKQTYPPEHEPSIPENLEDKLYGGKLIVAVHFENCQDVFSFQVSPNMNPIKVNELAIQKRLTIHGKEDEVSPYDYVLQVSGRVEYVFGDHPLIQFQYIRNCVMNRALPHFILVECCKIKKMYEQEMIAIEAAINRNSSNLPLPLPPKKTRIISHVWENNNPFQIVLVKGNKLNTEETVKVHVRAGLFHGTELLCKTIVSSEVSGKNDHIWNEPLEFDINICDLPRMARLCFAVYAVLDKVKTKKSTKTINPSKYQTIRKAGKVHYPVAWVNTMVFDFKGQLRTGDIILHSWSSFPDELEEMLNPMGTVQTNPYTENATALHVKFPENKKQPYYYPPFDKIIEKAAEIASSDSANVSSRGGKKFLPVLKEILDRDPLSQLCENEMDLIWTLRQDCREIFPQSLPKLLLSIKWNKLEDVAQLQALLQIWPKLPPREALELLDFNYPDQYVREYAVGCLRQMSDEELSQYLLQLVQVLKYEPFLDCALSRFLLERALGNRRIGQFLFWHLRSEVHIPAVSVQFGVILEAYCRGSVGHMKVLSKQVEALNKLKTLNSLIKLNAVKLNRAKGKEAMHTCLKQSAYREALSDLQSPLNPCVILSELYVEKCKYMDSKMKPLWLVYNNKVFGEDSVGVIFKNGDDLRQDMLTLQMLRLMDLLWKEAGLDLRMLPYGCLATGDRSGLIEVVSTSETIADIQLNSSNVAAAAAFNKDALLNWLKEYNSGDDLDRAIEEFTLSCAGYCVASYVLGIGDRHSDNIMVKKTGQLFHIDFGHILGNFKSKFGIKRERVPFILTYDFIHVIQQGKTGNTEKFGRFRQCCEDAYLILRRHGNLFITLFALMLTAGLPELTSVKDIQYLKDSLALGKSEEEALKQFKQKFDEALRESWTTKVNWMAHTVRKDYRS
Sequence of PIK3CD (Human) (O00329 whole entry, looked up): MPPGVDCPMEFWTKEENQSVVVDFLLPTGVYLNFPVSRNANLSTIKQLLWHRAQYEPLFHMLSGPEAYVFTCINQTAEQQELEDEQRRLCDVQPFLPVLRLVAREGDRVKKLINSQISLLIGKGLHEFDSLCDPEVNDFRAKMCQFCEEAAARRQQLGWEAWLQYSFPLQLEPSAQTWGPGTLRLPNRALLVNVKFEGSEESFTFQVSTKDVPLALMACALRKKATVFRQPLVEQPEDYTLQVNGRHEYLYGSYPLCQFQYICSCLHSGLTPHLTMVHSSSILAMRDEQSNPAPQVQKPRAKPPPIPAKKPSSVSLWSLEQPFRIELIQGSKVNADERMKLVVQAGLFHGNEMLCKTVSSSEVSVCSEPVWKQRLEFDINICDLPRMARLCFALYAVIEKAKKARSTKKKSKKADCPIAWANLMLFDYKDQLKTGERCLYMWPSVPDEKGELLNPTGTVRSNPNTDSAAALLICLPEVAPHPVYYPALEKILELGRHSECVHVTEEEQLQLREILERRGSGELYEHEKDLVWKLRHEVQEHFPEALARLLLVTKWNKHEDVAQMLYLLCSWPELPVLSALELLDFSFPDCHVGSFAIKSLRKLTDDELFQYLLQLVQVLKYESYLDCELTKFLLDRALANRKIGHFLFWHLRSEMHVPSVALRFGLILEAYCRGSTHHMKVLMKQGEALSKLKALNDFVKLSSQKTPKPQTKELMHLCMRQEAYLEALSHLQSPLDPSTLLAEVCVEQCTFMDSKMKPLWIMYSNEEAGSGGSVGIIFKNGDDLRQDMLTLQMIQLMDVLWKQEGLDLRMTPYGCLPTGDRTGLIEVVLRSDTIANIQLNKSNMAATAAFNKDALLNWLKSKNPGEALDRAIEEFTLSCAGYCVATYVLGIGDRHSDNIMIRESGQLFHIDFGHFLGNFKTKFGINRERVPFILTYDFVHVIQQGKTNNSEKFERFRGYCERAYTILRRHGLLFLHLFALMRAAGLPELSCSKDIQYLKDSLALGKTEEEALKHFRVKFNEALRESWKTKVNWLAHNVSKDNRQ

As usually defined, the IC50 is the concentration needed to halve the response being measured. A lower IC50 goes with greater potency. Consider `Cc1cccc2cc([C@H](C)Nc3nc(Cl)nc4[nH]cnc34)n(C3CC3)c(=O)c12`, for which the IC50 against PIK3CD (Human) is less than 0.1 µM; against PIK3CA (human) it was more than 10 µM; against PIK3CG (human), 0.1 to 1 µM; on PIK3CB (Human), less than 0.1 µM.
For `Cc1cccc2cc(C(C)Nc3ncnc4[nH]cnc34)n(-c3c(F)cccc3F)c(=O)c12` (stereo not drawn), the IC50 against PIK3CD (Human) was less than 0.1 µM; on PIK3CA (human) it was more than 10 µM; against PIK3CG (human), 0.1 to 1 µM; against PIK3CB (Human) it was more than 10 µM.
`Cc1cccc2cc([C@H](C)Nc3nc(N)ncc3Cl)n(C3CC3)c(=O)c12`: the concentration for half-maximal inhibition (IC50) on PIK3CD (Human) was less than 0.1 µM; against PIK3CA (human) it was more than 10 µM; on PIK3CG (human), 0.1 to 1 µM; against PIK3CB (Human), 0.1 to 1 µM.
For `Cc1cccc2cc([C@H](C)Nc3cc(N)nc(N)n3)n(-c3ccccc3)c(=O)c12`, the IC50 is 0.1 to 1 µM against PIK3CD (Human), more than 10 µM on PIK3CA (human), 0.1 to 1 µM at PIK3CG (human) and more than 10 µM on PIK3CB (Human).
On to `Cc1cccc2cc([C@H](C)Nc3ncnc4ccccc34)n(-c3ccccc3)c(=O)c12`, for which the IC50 against PIK3CD (Human) was less than 0.1 µM; on PIK3CA (human) it was more than 10 µM; against PIK3CG (human) it was 0.1 to 1 µM; against PIK3CB (Human), more than 10 µM.
In the case of `Cc1cccc(C)c1-n1c(CNc2ncnc3[nH]cnc23)cc2cccc(C)c2c1=O`, the IC50 against PIK3CD (Human) was less than 0.1 µM; against PIK3CA (human) it was more than 10 µM; on PIK3CG (human), 0.1 to 1 µM; against PIK3CB (Human) it was more than 10 µM.
As for `Cc1cccc2cc([C@H](C)Nc3nc(N)ncc3F)n(-c3ccccc3)c(=O)c12`, the IC50 against PIK3CD (Human) is less than 0.1 µM; against PIK3CA (human) it was more than 10 µM; on PIK3CG (human) it was 0.1 to 1 µM; against PIK3CB (Human), more than 10 µM.
